Results from BindingDB's records for patent WO2024074497 (Forx Therapeutics, 2024).

Target: T1, Poly(ADP-ribose) glycohydrolase [448-976,L473S,N479S,S802A,R811K,M841I,S858P,I916T,T924D,D927K,C963S,A967T] (UniProt Q86W56, A967T/C963S/D927K/I916T/L473S/M841I/N479S/R811K/S802A/S858P/T924D)
T1 construct: 448-976
Experiment: PARG enzymatic IC50 assay
Description: PARG enzyme as incubated with compound or vehicle (DMSO) for 15 minutes or 2 hours in a 384 well plate. After adding the PARG substrate ADP-ribose-pNP, the plate was read for absorbance intensity at 405 nm. The vehicle (DMSO) with high absorbance intensity represents no inhibition of enzymatic reaction while the low control (no enzyme) with low absorbance intensity represents full inhibition of enzymatic reaction.

T1 sequence (Q86W56 448-976 L473S/N479S/S802A/R811K/M841I/S858P/I916T/T924D/D927K/C963S/A967T): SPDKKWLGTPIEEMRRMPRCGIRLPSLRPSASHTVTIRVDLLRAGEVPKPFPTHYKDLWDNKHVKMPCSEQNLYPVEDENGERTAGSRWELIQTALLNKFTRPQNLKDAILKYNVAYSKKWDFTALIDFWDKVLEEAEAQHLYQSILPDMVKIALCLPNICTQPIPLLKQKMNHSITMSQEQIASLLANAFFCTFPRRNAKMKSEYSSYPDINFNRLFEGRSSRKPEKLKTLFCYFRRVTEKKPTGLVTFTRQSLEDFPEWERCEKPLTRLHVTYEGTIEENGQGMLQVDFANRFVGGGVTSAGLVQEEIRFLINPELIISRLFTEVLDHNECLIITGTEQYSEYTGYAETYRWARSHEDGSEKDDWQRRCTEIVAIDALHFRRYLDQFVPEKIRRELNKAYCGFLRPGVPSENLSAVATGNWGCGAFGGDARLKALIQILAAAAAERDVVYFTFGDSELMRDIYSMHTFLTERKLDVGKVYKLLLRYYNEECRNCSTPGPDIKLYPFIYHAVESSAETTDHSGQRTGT

With `C[C@H]1CN(c2cc(S(=O)(=O)NC3(C)CC3)cn3c(-c4nnc(C(F)F)s4)ncc23)C[C@H](C)N1` [WO2024074497, Example 1] the IC50 was 0.11 µM.
